Experimental data taken from ChEMBL document CHEMBL6127034, “Design, synthesis and biological evaluation of a novel PAK1 degrader for the treatment of triple negative breast cancer” (Bioorg Med Chem, 2024).
Activity calls are given as the source filed them. The rule behind the calls is not given here.

Key:
[1] = target: T1, Protein cereblon/Serine/threonine-protein kinase PAK 1 (Homo sapiens) (UniProt Q13153+Q96SW2); assay: PROTAC activity at CRBN/PAK1 in human MDA-MB-231 cells assessed as fold change in protein expression at 2.5 uM incubated for 48 hrs by Western blot analysis relative to control; format: cell-based
T1 sequence (Q13153 whole entry, looked up): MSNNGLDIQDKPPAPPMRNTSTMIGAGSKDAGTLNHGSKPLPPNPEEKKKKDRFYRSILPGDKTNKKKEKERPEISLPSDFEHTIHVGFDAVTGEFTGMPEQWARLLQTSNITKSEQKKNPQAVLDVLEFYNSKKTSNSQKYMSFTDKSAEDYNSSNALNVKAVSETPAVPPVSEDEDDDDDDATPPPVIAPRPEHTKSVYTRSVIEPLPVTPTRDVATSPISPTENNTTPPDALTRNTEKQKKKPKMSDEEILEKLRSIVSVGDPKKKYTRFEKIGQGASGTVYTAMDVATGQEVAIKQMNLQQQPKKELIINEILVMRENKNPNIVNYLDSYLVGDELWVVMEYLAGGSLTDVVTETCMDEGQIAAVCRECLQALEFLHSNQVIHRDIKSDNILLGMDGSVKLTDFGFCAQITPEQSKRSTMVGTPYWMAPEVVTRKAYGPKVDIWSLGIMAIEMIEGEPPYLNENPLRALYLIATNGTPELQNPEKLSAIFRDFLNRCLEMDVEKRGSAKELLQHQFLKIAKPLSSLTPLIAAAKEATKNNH
T1 sequence (Q96SW2 whole entry, looked up): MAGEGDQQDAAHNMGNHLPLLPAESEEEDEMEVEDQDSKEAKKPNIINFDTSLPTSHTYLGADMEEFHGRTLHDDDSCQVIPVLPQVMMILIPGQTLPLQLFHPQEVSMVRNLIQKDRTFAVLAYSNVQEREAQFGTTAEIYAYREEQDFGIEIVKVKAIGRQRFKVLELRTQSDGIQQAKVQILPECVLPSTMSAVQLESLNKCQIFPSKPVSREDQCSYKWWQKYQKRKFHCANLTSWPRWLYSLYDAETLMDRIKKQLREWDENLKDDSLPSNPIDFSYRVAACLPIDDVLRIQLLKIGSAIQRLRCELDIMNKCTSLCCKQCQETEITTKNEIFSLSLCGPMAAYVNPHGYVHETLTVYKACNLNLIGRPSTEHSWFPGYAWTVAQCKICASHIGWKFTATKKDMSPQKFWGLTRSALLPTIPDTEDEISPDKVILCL

[2] = target: T1, Protein cereblon/Serine/threonine-protein kinase PAK 1 (Homo sapiens); assay: PROTAC activity at CRBN/PAK1 in human MDA-MB-231 cells assessed as induction of protein degradation at 2.5 uM incubated for 48 hrs by Western blot analysis relative to control; format: cell-based
[3] = target: T1, Protein cereblon/Serine/threonine-protein kinase PAK 1 (Homo sapiens); assay: PROTAC activity at CRBN/PAK1 in human MDA-MB-231 cells assessed as induction of protein degradation at 0.1 uM incubated for 48 hrs by Western blot analysis relative to control; format: cell-based
MDA-MB-231 [4] = assay: Antiproliferative activity against human MDA-MB-231 cells incubated for 48 hrs by MTT assay; format: functional, cell-based; conditions: MDA-MB-231, 48 h
MDA-MB-231 [5] = assay: Induction of apoptosis in human MDA-MB-231 cells assessed as viable cells at 2.5 uM incubated for 12 to 48 hrs by Annexin V-FITC/PI staining based flow cytometry (reference value: 97.0 %); format: functional; conditions: time 12-48 hrs, read-out: Activity
MDA-MB-231 [6] = assay: Inhibition of cell proliferation of human MDA-MB-231 cells assessed as decrease in Ki-67 expression at 2.5 uM incubated for 24 hrs by immunofluorescence based analysis; format: functional
MDA-MB-231 [7] = assay: Inhibition of cell proliferation of human MDA-MB-231 cells at 2.5 uM by crystal violet staining based colony formation assay; format: functional
MDA-MB-231 [8] = assay: Induction of apoptosis in human MDA-MB-231 cells assessed as late apoptotic cells at 2.5 uM incubated for 12 to 48 hrs by Annexin V-FITC/PI staining based flow cytometry (reference value: 1.48 %); format: functional; conditions: time 12-48 hrs
MDA-MB-231 [9] = assay: Induction of apoptosis in human MDA-MB-231 cells assessed as early apoptotic cells at 2.5 uM incubated for 12 to 48 hrs by Annexin V-FITC/PI staining based flow cytometry (reference value: 1.12 %); format: functional; conditions: time 12-48 hrs
MDA-MB-231 [10] = assay: Inhibition of cell proliferation of human MDA-MB-231 cells at 2.5 uM by EdU staining based analysis; format: functional
MDA-MB-231 [11] = assay: Inhibition of 3D-spherioid formation of human MDA-MB-231 cells at 2.5 uM by crystal violet staining based colony formation assay; format: functional, cell-based
MDA-MB-231 [12] = assay: Inhibition of cell migration in human MDA-MB-231 cells at 2.5 uM incubated for 24 hrs by transwell assay; format: functional, cell-based
MDA-MB-231 [13] = assay: Inhibition of cell migration in human MDA-MB-231 cells at 2.5 uM incubated upto 48 hrs by wound healing assay; format: functional, cell-based
MDA-MB-231 [14] = assay: Induction of apoptosis in human MDA-MB-231 cells assessed as necrotic cells at 2.5 uM incubated for 12 to 48 hrs by Annexin V-FITC/PI staining based flow cytometry (reference value: 0.43 %); format: functional; conditions: time 12-48 hrs
[15] = target: T2, von Hippel-Lindau disease tumor suppressor/Serine/threonine-protein kinase PAK 1 (Homo sapiens, UniProt Q13153+P40337); assay: PROTAC activity at VHL/PAK1 in human MDA-MB-231 cells assessed as induction of protein degradation at 2.5 uM incubated for 48 hrs by Western blot analysis relative to control; format: cell-based
T2 sequence (Q13153 2-545 limits assumed): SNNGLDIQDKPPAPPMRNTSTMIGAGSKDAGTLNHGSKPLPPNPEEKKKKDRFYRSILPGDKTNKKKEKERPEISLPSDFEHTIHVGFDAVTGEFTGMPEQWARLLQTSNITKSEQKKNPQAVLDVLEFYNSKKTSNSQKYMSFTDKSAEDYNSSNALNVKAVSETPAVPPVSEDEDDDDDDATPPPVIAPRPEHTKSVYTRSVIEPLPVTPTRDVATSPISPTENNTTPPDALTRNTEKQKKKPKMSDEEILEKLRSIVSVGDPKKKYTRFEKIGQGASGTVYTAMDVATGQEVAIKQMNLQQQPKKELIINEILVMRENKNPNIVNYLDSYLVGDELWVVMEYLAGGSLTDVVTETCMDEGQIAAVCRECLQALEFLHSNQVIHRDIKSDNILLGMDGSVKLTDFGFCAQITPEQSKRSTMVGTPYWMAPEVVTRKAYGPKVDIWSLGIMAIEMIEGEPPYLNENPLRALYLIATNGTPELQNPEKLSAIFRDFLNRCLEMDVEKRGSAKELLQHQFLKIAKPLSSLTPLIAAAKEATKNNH
T2 sequence (P40337 whole entry partner): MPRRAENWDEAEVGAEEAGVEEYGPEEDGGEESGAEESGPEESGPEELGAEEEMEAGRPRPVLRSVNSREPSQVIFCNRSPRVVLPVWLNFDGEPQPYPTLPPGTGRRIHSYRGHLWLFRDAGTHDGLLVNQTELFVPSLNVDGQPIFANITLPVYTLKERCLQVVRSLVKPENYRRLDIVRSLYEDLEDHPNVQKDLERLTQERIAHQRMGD

[16] = target: T2, von Hippel-Lindau disease tumor suppressor/Serine/threonine-protein kinase PAK 1; assay: PROTAC activity at VHL/PAK1 in human MDA-MB-231 cells assessed as fold change in protein expression at 2.5 uM incubated for 48 hrs by Western blot analysis relative to control; format: cell-based
[17] = target: T2, von Hippel-Lindau disease tumor suppressor/Serine/threonine-protein kinase PAK 1; assay: PROTAC activity at VHL/PAK1 in human MDA-MB-231 cells assessed as induction of protein degradation at 0.1 uM incubated for 48 hrs by Western blot analysis relative to control; format: cell-based
MDA-MB-231 [18] = assay: Antiproliferative activity against human MDA-MB-231 cells; format: functional, cell-based
[19] = target: Serine/threonine-protein kinase PAK 1 (Homo sapiens, UniProt Q13153); assay: Inhibition of PAK1 (unknown origin)
Chain of Serine/threonine-protein kinase PAK 1 (Q13153 whole entry): as the sequence (Q13153 whole entry, looked up) above

Row | SMILES | fold change (FC) [1] | Activity [2] [%] | Activity [3] [%] | IC50 (MDA-MB-231 [4]) [µM] | Activity [15] [%] | fold change (FC) [16] | Activity [17] [%] | other results
1 | O=C1CCC(N2C(=O)c3cccc(NCc4cn(CCCCCCCn5c(=O)c(-c6ccc(Cl)cc6Cl)cc6cnc(NC7CC7)nc65)nn4)c3C2=O)C(=O)N1 (configuration not stated) | 0.44 | 56.1 | 18.3 | 7.35 |  |  |  | 
2 | CNc1ncc2cc(-c3ccc(Cl)cc3Cl)c(=O)n(CCCCCCn3cc(CNc4cccc5c4C(=O)N(C4CCC(=O)NC4=O)C5=O)nn3)c2n1 (configuration not stated) | 0.653 | 41.7 | 15.3 | 25.8 |  |  |  | 
3 | CCn1c(=O)c(-c2ccc(-c3cncs3)cc2Cl)cc2cnc(Nc3ccc(N4CCN(C)CC4)cc3)nc21 |  |  |  | 3.23 |  |  |  | viability at 2.5 µM (MDA-MB-231 [5]): 97.2%; inhibition (MDA-MB-231 [6]): Active; inhibition (MDA-MB-231 [7]): Active; Activity (MDA-MB-231 [8]): 1.08%; Activity (MDA-MB-231 [9]): 1.67%; inhibition (MDA-MB-231 [10]): Active; inhibition (MDA-MB-231 [11]): Active; inhibition (MDA-MB-231 [12]): Active; inhibition (MDA-MB-231 [13]): inactive; Activity (MDA-MB-231 [14]): 0.058%
4 | CNc1ncc2cc(-c3ccc(Cl)cc3Cl)c(=O)n(CCCCCCCn3cc(CNc4cccc5c4C(=O)N(C4CCC(=O)NC4=O)C5=O)nn3)c2n1 (configuration not stated) | 0.545 | 45.5 | 23.1 | 18.9 |  |  |  | 
5 | Cc1ncsc1-c1ccc([C@H](C)NC(=O)[C@@H]2C[C@@H](O)CN2C(=O)[C@@H](NC(=O)CCc2cn(CCOCCn3c(=O)c(-c4ccc(Cl)cc4Cl)cc4cnc(NC5CC5)nc43)nn2)C(C)(C)C)cc1 |  |  |  | 16.9 | 44.3 | 0.557 | 15.7 | 
6 | CNc1ncc2cc(-c3ccc(Cl)cc3Cl)c(=O)[nH]c2n1 |  |  |  | 28.6 |  |  |  | IC50 (MDA-MB-231 [18]): 28.6 µM; IC50 [19]: 0.052 µM
7 | Cc1ncsc1-c1ccc([C@H](C)NC(=O)[C@@H]2C[C@@H](O)CN2C(=O)[C@@H](NC(=O)CCCc2cn(CCCCCn3c(=O)c(-c4ccc(Cl)cc4Cl)cc4cnc(NC5CC5)nc43)nn2)C(C)(C)C)cc1 |  |  |  | 16.3 | 45.5 | 0.545 | 11.9 | 
8 | Cc1ncsc1-c1ccc([C@H](C)NC(=O)[C@@H]2C[C@@H](O)CN2C(=O)[C@@H](NC(=O)CCCCc2cn(CCCCCn3c(=O)c(-c4ccc(Cl)cc4Cl)cc4cnc(NC5CC5)nc43)nn2)C(C)(C)C)cc1 |  |  |  | 5.47 | 57 | 0.43 | 27.4 | 
9 | Cc1ncsc1-c1ccc([C@H](C)NC(=O)[C@@H]2C[C@@H](O)CN2C(=O)[C@@H](NC(=O)CCCc2cn(CCCCCCCn3c(=O)c(-c4ccc(Cl)cc4Cl)cc4cnc(NC5CC5)nc43)nn2)C(C)(C)C)cc1 |  |  |  | 2.01 | 68.2 | 0.318 | 41 | 
